Reference: US4182707A, “Somatostatin analogues” (American Home Products Corporation, priority 1978, dated 1980)
Positions of bridges follow the written chain, without caps; N, C: chain ends. Non-standard residues stand in square brackets, D forms with d. Residues, ends and D or L forms follow the SMILES beside them.

Tests used:
growth hormone = assay: Arginine-stimulated growth hormone secretion in Nembutal-anesthetized rats; assay type: in vivo, Albino male rats; details: 100 micrograms per kilogram subcutaneous; arginine into the heart 10 min later, blood 5 min after arginine; p<0.01; control 122±26 ng/ml
Procedure: The activity of the product of the preceding preparatory example, (des-Ala^1 -Gly^2, D-Lys^4, Trp^5, D-Trp^8)Somatostatin was determined by the following procedure:
Albino male rats were administered Nembutal intraperitoneally at a dose of 50 milligrams per kilogram. Fifteen minutes later a subcutaneous injection of the test compound or physiological saline was administered. Ten minutes later 0.5 millileters of arginine (300 milligrams per milliliter, pH 7.2) is injected into the heart. Five minutes after receipt of the arginine the rats are decapitated and blood is collected into trasylol-EDTA. […] Thus, (des-Ala^1 -Gly^2, D-Lys^4, Trp^5, D-Trp^8)Somatostatin, representative of the corresponding D-Arg^4,D-His^4, D-Orn^4, Phe^5, Tyr^5, Leu^5 and Met^5 analogues, their (Ala^1 -Gly^2)somatostatin analogues and the corresponding L-Trp^8 and D-Cys^14 analogues, is an effective agent for selectively reducing secretion of growth hormone at relatively high doses.

total acid output = assay: Four hour pylorus ligated rat test (Shay et al.), anti-secretory activity; assay type: in vivo; details: dosage between 0.25 and 2.0 mg/kg, p<0.05
From the text: Therefore, the product of Example 2 is also useful as an anti-secretory agent for the treatment of peptic ulcer disease.

Structure (SMILES): C[C@@H](O)[C@@H]1NC(=O)[C@H](Cc2ccccc2)NC(=O)[C@H]([C@@H](C)O)NC(=O)[C@H](CCCCN)NC(=O)[C@@H](Cc2c[nH]c3ccccc23)NC(=O)[C@H](Cc2ccccc2)NC(=O)[C@H](Cc2ccccc2)NC(=O)[C@H](Cc2c[nH]c3ccccc23)NC(=O)[C@@H](CCCCN)NC(=O)[C@@H](N)CSSC[C@@H](C(=O)O)NC(=O)[C@H](CO)NC1=O [Example 2, L-cysteinyl-D-lysyl-L-tryptophyl-L-phenylalanyl-L-phenylalanyl-D-tryptophyl-L-lysyl-L-threonyl-L-phenylalanyl-L-threonyl-L-seryl-L-cysteine cyclic (1-12) disulfide] (H-C[dK]WFF[dW]KTFTSC-OH; disulfide 1-12)
- growth hormone in blood (growth hormone): 24 ± 7 ng/mL
- inhibition of total acid output (total acid output): ~50%
